Laboratory results taken from patent US10590140B2, “Tetrahydropyrimidodiazepine and dihydropyridodiazepine compounds for treating pain and pain related conditions” (ESTEVE PHARMACEUTICALS, S.A., priority 2016, dated 2020).

Biological target: human α2δ-1 subunit of Cav2.2 calcium channel (Homo sapiens (Human), UniProt P54289)
Assay: Binding assay to human α2δ-1 subunit of Cav2.2 calcium channel ([3H]-Gabapentin)
Conditions: binding to α2δ-1, [3H]-Gabapentin; read-out: Ki (nM) α2δ-1
Outline: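 Radioactivity on dried GF/C filters quantified by scintillation after filtration and three cold Tris-HCl (pH 7.4) washes. Incubation ran 60 min at 27° C with [3H]-gabapentin; 10 μM pregabalin gave nonspecific binding.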

human α2δ-1 subunit of Cav2.2 calcium channel, sequence (P54289 25-1103): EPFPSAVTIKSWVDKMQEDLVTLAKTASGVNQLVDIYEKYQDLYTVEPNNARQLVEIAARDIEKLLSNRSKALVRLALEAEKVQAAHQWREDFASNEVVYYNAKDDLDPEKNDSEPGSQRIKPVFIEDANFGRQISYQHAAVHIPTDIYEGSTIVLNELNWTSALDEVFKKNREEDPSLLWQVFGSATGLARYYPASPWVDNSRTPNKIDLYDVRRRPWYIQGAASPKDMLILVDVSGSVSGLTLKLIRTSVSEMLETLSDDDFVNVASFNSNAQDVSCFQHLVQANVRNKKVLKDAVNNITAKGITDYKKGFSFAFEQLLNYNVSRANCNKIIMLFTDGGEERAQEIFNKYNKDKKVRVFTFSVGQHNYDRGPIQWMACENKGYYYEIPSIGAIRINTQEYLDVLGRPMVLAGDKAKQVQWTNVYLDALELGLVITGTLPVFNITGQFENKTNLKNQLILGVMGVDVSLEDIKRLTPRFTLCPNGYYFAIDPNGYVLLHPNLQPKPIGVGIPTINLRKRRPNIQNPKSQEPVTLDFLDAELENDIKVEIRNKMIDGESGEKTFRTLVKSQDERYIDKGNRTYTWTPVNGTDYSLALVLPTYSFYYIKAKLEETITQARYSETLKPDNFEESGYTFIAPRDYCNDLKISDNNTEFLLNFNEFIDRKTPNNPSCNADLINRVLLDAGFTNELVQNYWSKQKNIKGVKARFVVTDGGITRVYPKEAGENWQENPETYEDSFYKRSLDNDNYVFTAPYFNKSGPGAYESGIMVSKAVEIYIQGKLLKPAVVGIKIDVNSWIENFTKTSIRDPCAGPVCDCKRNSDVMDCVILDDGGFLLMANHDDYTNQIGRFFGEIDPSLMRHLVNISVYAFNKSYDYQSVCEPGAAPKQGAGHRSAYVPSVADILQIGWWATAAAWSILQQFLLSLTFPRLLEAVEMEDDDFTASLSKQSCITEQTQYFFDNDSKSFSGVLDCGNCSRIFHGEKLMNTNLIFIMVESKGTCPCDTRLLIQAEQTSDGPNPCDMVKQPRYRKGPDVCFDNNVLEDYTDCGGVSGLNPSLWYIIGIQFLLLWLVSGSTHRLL

Row | Compound | Ki [nM]
1 | CCNc1ncc2c(n1)N(C)CCN(c1cccc(O[C@@H](CCN(C)C(=O)OC(C)(C)C)c3ccccc3)c1)C2=O [Example 71, tert-butyl (S)-(3-(3-(2-(ethylamino)-9-methyl-5-oxo-5,7,8,9-tetrahydro-6H-pyrimido[4,5-e][1,4]diazepin-6-yl)phenoxy)-3-phenylpropyl)(methyl) carbamate] | > 3000
2 | CCNc1ncc2c(n1)N(C)CCN(c1cccc(OC(CN(C)C(=O)OC(C)(C)C)c3ccccc3)c1)C2=O (stereo not shown) [Example 72, tert-butyl (2-(3-(2-(ethylamino)-9-methyl-5-oxo-5,7,8,9-tetrahydro-6H-pyrimido[4,5-e][1,4]diazepin-6-yl)phenoxy)-2-phenylethyl)(methyl) carbamate] | > 3000
3 | CCNc1ncc2c(n1)N(C)CCN(c1cccc(OC(CNC(=O)OC(C)(C)C)c3ccccc3)c1)C2=O (stereo not shown) [Example 73, tert-butyl (2-(3-(2-(ethylamino)-9-methyl-5-oxo-5,7,8,9-tetrahydro-6H-pyrimido[4,5-e][1,4]diazepin-6-yl)phenoxy)-2-phenylethyl)carbamate] | > 3000
4 | CCNc1ncc2c(n1)N(C)CCN(c1cccc(OC(C)CN(C)C(=O)OC(C)(C)C)c1)C2=O (stereo not shown) [Example 74, tert-butyl (2-(3-(2-(ethylamino)-9-methyl-5-oxo-5,7,8,9-tetrahydro-6H-pyrimido[4,5-e][1,4]diazepin-6-yl)phenoxy)propyl) (methyl)carbamate] | > 3000
5 | CCNc1ncc2c(n1)N(C)CCN(c1cccc(OC(CN(C)C(=O)OC(C)(C)C)C(C)C)c1)C2=O (stereo not shown) [Example 75, tert-butyl (2-(3-(2-(ethylamino)-9-methyl-5-oxo-5,7,8,9-tetrahydro-6H-pyrimido[4,5-e][1,4]diazepin-6-yl)phenoxy)-3-methylbutyl) (methyl)carbamate] | > 3000
6 | CCNc1ncc2c(n1)N(C)CCN(c1ccc(OC(CN(C)C(=O)OC(C)(C)C)c3ccccc3)cc1)C2=O (stereo not shown) [Example 76, tert-butyl (2-(4-(2-(ethylamino)-9-methyl-5-oxo-5,7,8,9-tetrahydro-6H-pyrimido[4,5-e][1,4]diazepin-6-yl)phenoxy)-2-phenylethyl)(methyl) carbamate] | > 3000
7 | CCNc1ncc2c(n1)N(C)CCN(c1cccc(COC(CCN(C)C(=O)OC(C)(C)C)c3ccccc3)c1)C2=O (stereo not shown) [Example 77, tert-butyl (3-((3-(2-(ethylamino)-9-methyl-5-oxo-5,7,8,9-tetrahydro-6H-pyrimido[4,5-e][1,4]diazepin-6-yl)benzyl)oxy)-3-phenylpropyl)(methyl) carbamate] | > 3000
8 | CCNc1ncc2c(n1)N(C)CCN(c1cccc(CO[C@H](CCN(C)C(=O)OC(C)(C)C)c3ccccc3)c1)C2=O [Example 78, tert-butyl (R)-(3-((3-(2-(ethylamino)-9-methyl-5-oxo-5,7,8,9-tetrahydro-6H-pyrimido[4,5-e][1,4]diazepin-6-yl)benzyl)oxy)-3-phenylpropyl)(methyl) carbamate] | > 3000
9 | CCNc1ncc2c(n1)N(C)CCN(c1cccc(CO[C@@H](CCN(C)C(=O)OC(C)(C)C)c3ccccc3)c1)C2=O [Example 79, tert-butyl (S)-(3-((3-(2-(ethylamino)-9-methyl-5-oxo-5,7,8,9-tetrahydro-6H-pyrimido[4,5-e][1,4]diazepin-6-yl)benzyl)oxy)-3-phenylpropyl)(methyl) carbamate] | > 3000
10 | CCNc1ncc2c(n1)N(C)CCN(c1cccc(OC(CCN(C)C(=O)OC(C)(C)C)c3cccs3)c1)C2=O (stereo not shown) [Example 80, tert-butyl (3-(3-(2-(ethylamino)-9-methyl-5-oxo-5,7,8,9-tetrahydro-6H-pyrimido[4,5-e][1,4]diazepin-6-yl)phenoxy)-3-(thiophen-2-yl)propyl)(methyl) carbamate] | > 3000
11 | CCNc1ncc2c(n1)N(C)CCN(c1cccc(O[C@H](CCN(C)C(=O)OC(C)(C)C)c3cccs3)c1)C2=O [Example 81, tert-butyl (R)-(3-(3-(2-(ethylamino)-9-methyl-5-oxo-5,7,8,9-tetrahydro-6H-pyrimido[4,5-e][1,4]diazepin-6-yl)phenoxy)-3-(thiophen-2-yl)propyl)(methyl) carbamate] | > 3000
12 | CCNc1ncc2c(n1)N(C)CCN(c1cccc(O[C@@H](CCN(C)C(=O)OC(C)(C)C)c3cccs3)c1)C2=O [Example 82, tert-butyl (S)-(3-(3-(2-(ethylamino)-9-methyl-5-oxo-5,7,8,9-tetrahydro-6H-pyrimido[4,5-e][1,4]diazepin-6-yl)phenoxy)-3-(thiophen-2-yl)propyl)(methyl) carbamate] | > 3000
13 | CCNc1ncc2c(n1)N(C)CCN(c1cccc(COC(CCN(C)C(=O)OC(C)(C)C)c3cccs3)c1)C2=O (stereo not shown) [Example 83, tert-butyl (3-((3-(2-(ethylamino)-9-methyl-5-oxo-5,7,8,9-tetrahydro-6H-pyrimido[4,5-e][1,4]diazepin-6-yl)benzyl)oxy)-3-(thiophen-2-yl)propyl)(methyl) carbamate] | > 3000
14 | CCNc1ncc2c(n1)N(C)CCN(c1cccc(CO[C@H](CCN(C)C(=O)OC(C)(C)C)c3cccs3)c1)C2=O [Example 84, tert-butyl (R)-(3-((3-(2-(ethylamino)-9-methyl-5-oxo-5,7,8,9-tetrahydro-6H-pyrimido[4,5-e][1,4]diazepin-6-yl)benzyl)oxy)-3-(thiophen-2-yl)propyl)(methyl) carbamate] | > 3000
15 | CCNc1ncc2c(n1)N(C)CCN(c1cccc(CO[C@@H](CCN(C)C(=O)OC(C)(C)C)c3cccs3)c1)C2=O [Example 85, tert-butyl (S)-(3-((3-(2-(ethylamino)-9-methyl-5-oxo-5,7,8,9-tetrahydro-6H-pyrimido[4,5-e][1,4]diazepin-6-yl)benzyl)oxy)-3-(thiophen-2-yl)propyl)(methyl) carbamate] | > 3000
16 | CCNc1ncc2c(n1)N(C)CCN(c1cccc(COCC(c3ccccc3)N(C)C(=O)OC(C)(C)C)c1)C2=O (stereo not shown) [Example 86, tert-butyl (2-((3-(2-(ethylamino)-9-methyl-5-oxo-5,7,8,9-tetrahydro-6H-pyrimido[4,5-e][1,4]diazepin-6-yl)benzyl)oxy)-1-phenylethyl)(methyl) carbamate] | > 3000
17 | CCNc1ncc2c(n1)N(C)CCN(c1cccc(COC(CN(C)C(=O)OCC[Si](C)(C)C)c3ccccc3)c1)C2=O (stereo not shown) [Example 87, 2-(trimethylsilyl)ethyl (2-((3-(2-(ethylamino)-9-methyl-5-oxo-5,7,8,9-tetrahydro-6H-pyrimido[4,5-e][1,4]diazepin-6-yl)benzyl)oxy)-2-phenylethyl)(methyl) carbamate] | > 3000
18 | CCNc1ncc2c(n1)N(C)CCN(c1cccc(OCCCN(C)C(=O)OC(C)(C)C)c1)C2=O [Example 88, tert-butyl (3-(3-(2-(ethylamino)-9-methyl-5-oxo-5,7,8,9-tetrahydro-6H-pyrimido[4,5-e][1,4]diazepin-6-yl)phenoxy)propyl) (methyl)carbamate] | > 3000
19 | CCNc1ncc2c(n1)N(C)CCN(c1cccc(OCCCN(Cc3ccccc3)C(=O)OC(C)(C)C)c1)C2=O [Example 89, tert-butyl benzyl (3-(3-(2-(ethylamino)-9-methyl-5-oxo-5,7,8,9-tetrahydro-6H-pyrimido[4,5-e][1,4]diazepin-6-yl)phenoxy)propyl) carbamate] | > 3000
